Reference: paper PMC6556873, “Rapid Covalent-Probe Discovery by Electrophile-Fragment Screening” (Journal of the American Chemical Society, 2019)
Like-named read-outs stand apart in the source and are kept apart here.

Assays:
NUDT7 = molecular target: T1, NUDT7 (Homo sapiens, UniProt P0C024); set-up: Intact protein LC/MS covalent labelling, fragments in pools of five, 200 uM each, 4 °C; conditions: 24 h, 4 °C, pool of five; 200 µM; covalent
T1 construct: residues 14-235, E. coli, pNIC28-Bsa4, N-terminal His6 tag removed by TEV, construct 26672 Da
Protocol: (§1) Incubations were performed at 200 μM for each compound and 2 μM of protein (10 μM for BSA) for 24 h at 4 °C with moderate shaking. Incubation buffers varied among proteins (PBS pH 7.4 for QSOX1 and BSA; 10 mM HEPES pH 7.5, 0.3 M NaCl, 0.5 mM TCEP for PCAF, UPS8, and NUDT7; […]; 10 mM Na2HPO4 pH 7.5 100 mM NaCl 5 mM β-mercaptoethanol for NV3CP; 20 mM Na phosphate pH 7.5 for NNMT; […]. The reaction was stopped by quenching with formic acid, 0.4% final concentration. Each protein was incubated with the electrophilic library in pools of five compounds per well. The pool’s composition maximized the difference in mass between fragments in the same well. Incubations were performed with each fragment at 200 μM, for 24 h at 4 °C, to allow the screening of proteins that are not stable for long time periods at higher temperatures. Following incubation, we used intact protein [compound left out] chromatography/mass spectrometry (LC/MS) to identify the fragments and quantify their labeling (Figure 3A). […] There was good agreement between the percent of labeling of NUDT7 by 100 random individual compounds and that obtained in pools of five (R^2=0.78; Figure S6 and Data set 2 in the Supporting Information).

OTUB2 (OTUB2A) = molecular target: T2, OTUB2 (OTUB2A) (Homo sapiens, UniProt Q96DC9); set-up: Intact protein LC/MS covalent labelling, fragments in pools of five, 200 uM each, 4 °C; conditions: 24 h, 4 °C, pool of five; 200 µM; covalent
T2 construct: full length residues 1-234, E. coli BL21(DE3)-R3, His tag removed by TEV, construct 27312 Da
T2 sequence (Q96DC9 1-234): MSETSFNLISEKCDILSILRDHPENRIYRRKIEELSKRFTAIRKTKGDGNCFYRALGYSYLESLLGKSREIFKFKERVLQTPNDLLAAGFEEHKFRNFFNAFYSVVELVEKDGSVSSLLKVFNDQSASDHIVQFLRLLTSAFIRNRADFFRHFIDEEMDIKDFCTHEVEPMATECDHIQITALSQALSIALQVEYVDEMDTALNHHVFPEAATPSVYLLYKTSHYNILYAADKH
Protocol: as §1

PCAF = molecular target: T3, PCAF (Homo sapiens, UniProt Q92831); set-up: Intact protein LC/MS covalent labelling, fragments in pools of five, 200 uM each, 4 °C; conditions: 24 h, 4 °C, pool of five; 200 µM; covalent
T3 construct: gene KAT2B
Protocol: as §1

BSA = molecular target: T4, BSA (Bos taurus, UniProt P02769); set-up: Intact protein LC/MS covalent labelling, fragments in pools of five, 200 uM each, 4 °C; conditions: 24 h, 4 °C, pool of five; 200 µM; covalent
T4 construct: gene ALB
Protocol: as §1

in vitro [1] = assay: in vitro; set-up: species or system HB2, CCD841; conditions: human, hek293 cells
in vitro [2] = assay: in vitro; set-up: species or system HB2, HEK293; conditions: human, ccd841 cells
in vitro [3] = assay: in vitro; set-up: species or system CCD841, HEK293; conditions: human, hb2 cells, read-out: HB-2 Cells Viability (%)

T1 sequence (P0C024 14-235): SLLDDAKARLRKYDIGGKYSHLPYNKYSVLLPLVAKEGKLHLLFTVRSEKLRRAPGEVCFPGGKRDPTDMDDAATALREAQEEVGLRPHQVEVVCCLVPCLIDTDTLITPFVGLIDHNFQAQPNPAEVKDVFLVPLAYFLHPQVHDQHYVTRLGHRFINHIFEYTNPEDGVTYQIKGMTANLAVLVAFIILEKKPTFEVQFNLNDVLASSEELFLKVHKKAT
T3 sequence (Q92831 whole entry, the tested form may be a part): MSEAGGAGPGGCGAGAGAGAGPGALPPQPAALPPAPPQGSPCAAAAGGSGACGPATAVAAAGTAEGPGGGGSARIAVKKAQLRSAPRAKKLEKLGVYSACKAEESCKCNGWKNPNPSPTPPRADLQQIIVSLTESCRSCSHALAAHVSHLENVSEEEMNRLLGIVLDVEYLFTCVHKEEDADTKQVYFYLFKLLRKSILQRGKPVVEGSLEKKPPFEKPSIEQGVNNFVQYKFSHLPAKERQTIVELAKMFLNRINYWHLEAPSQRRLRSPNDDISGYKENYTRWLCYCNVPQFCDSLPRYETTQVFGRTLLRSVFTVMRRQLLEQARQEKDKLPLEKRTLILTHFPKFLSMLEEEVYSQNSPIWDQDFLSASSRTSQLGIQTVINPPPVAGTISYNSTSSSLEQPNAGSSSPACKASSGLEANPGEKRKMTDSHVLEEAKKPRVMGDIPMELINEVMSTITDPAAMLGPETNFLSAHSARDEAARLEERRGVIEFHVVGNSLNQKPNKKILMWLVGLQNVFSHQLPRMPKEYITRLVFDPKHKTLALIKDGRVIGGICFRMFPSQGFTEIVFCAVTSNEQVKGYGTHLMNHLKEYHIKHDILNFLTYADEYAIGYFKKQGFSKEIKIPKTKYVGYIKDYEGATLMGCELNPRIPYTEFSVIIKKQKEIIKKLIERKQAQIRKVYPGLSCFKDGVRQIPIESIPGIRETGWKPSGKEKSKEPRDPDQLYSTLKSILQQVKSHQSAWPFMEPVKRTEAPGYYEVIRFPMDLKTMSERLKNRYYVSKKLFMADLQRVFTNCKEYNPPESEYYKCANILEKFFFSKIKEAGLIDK
T4 sequence (P02769 whole entry, the tested form may be a part): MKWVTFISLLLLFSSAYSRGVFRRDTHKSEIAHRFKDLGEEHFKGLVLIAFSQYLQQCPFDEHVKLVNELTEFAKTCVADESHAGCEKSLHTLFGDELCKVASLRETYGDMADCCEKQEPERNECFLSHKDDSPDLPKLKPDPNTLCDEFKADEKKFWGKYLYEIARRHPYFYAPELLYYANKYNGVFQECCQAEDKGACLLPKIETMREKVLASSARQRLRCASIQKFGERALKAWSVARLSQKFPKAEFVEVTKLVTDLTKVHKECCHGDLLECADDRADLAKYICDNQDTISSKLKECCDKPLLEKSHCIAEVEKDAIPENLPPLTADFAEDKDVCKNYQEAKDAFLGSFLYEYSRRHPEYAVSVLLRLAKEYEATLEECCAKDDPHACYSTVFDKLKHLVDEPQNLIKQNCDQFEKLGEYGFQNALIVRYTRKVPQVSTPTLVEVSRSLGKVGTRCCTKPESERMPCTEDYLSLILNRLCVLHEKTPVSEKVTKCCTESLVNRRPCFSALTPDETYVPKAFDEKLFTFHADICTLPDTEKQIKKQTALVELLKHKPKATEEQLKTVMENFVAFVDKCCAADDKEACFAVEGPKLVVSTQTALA

Row | SMILES | NUDT7 (NUDT7) | OTUB2 (OTUB2 (OTUB2A)) | PCAF (PCAF) | BSA (BSA) | viability at 48 h, 10 µM (in vitro [1]) | viability at 48 h, 10 µM (in vitro [2]) | viability at 48 h, 10 µM (in vitro [3])
1 | Cl.O=C(CCl)N1CCN(c2ncccn2)CC1 [PCM-0102093] | 0 | 0 | 0 | 0 | 63.9% | 83.3% | 57.5%
2 | CC(NC(=O)CCl)c1ccc(Cl)c(Cl)c1 (stereo not drawn) [PCM-0102096] | 0.51 | 0.26 | 0 | 0 | 21.3% | 58.1% | 28.9%
3 | Cc1ccc(C2=NN(C(=O)CCl)C(c3ccco3)C2)o1 (stereo not drawn) [PCM-0102102] | 0.2 | 0 | 0 | 0 | 1.6% | 12.7% | 9.4%
4 | CCN1CCC(NC(=O)CCl)CC1.Cl [PCM-0102103] | 0 | 0 | 0 | 0 | 66.8% | 84.1% | 96%
5 | NS(=O)(=O)c1ccc2c(c1)CCN2C(=O)CCl [PCM-0102229] | 0 | 0.21 | 0 | 0 |  |  | 
6 | O=C(CCl)N1CCSC1c1ccccc1F (stereo not drawn) [PCM-0102293] | 0.83 | 0.12 | 0 | 0 |  |  | 
7 | COc1cc2c(cc1OC)CN(C(=O)CCl)CC2 [PCM-0102317] | 0.1 | 0.14 | 0 | 0 |  |  | 
8 | CN(C(=O)CCl)c1ccccc1 [PCM-0102368] | 0 | 0 | 0 | 0 |  |  | 
9 | Cc1c(C#N)sc(NC(=O)CCl)c1C#N [PCM-0102371] | 0 | 0 | 0 |  | 87.5% | 102% | 94.3%
10 | C=CC(=O)N1CCC(Cc2ccccn2)CC1 [PCM-0102473] | 0 | 0 | 0 |  | 98.6% | 112% | 100%
11 | O=C(CCl)NCc1ccccc1 [PCM-0102538] | 0 | 0.28 | 0 | 0 |  |  | 
12 | C=CC(=O)N1CCCC(Cn2ccnn2)C1 (stereo not drawn) [PCM-0102647] |  | 0.09 | 0 | 0 | 102% | 102% | 101%
13 | C=CC(=O)Nc1cc(C)on1 [PCM-0102805] | 0 | 0 | 0 | 0 |  |  | 
14 | O=C(CCl)NC1CCC2(CC1)OCCO2 [PCM-0102820] |  | 0.13 | 0 | 0 | 111% | 96.8% | 107%
15 | C=CC(=O)N1CCc2ncsc2C1 [PCM-0102847] | 0 | 0 | 0 | 0 |  |  | 
16 | C=CC(=O)Nc1nc(-c2ccc(O)cc2)cs1 [PCM-0102884] |  | 0 | 0 | 0 | 65.4% | 80% | 75.2%
17 | C=CC(=O)NCc1ccc2cnn(C)c2c1 [PCM-0102947] | 0 | 0 | 0 | 0 |  |  | 
18 | O=C(Nc1ccccc1)NN(C(=O)CCl)c1ccccc1 [PCM-0102957] | 1 | 0 | 0 |  | 0.8% | 1.1% | 3.7%
19 | CN(Cc1cccc(Cl)c1)C(=O)CCl [PCM-0102976] |  | 0 | 0 | 0 | 31.2% | 67.9% | 18.9%
20 | C=CC(=O)Nc1ccccc1C [PCM-0103000] | 0 | 0.12 | 0 | 0 |  |  | 
21 | O=C(CCl)NCC#Cc1ccccc1 [PCM-0103007] |  | 0.6 | 0 | 0 | 59.4% | 84.1% | 78.1%
22 | C=CC(=O)Nc1ccc(OC)cc1 [PCM-0103034] | 0 | 0 | 0 | 0 |  |  | 

Continued, in another order:

Row | NUDT7 (NUDT7) | OTUB2 (OTUB2 (OTUB2A)) | PCAF (PCAF) | BSA (BSA) | SMILES | viability at 48 h, 10 µM (in vitro [1]) | viability at 48 h, 10 µM (in vitro [2]) | viability at 48 h, 10 µM (in vitro [3])
23 | 0.27 | 0 | 0 | 0 | O=C(CCl)N1CCN(c2ccc([N+](=O)[O-])cc2)CC1 [PCM-0102094] | 1.3% | 9.2% | 1.2%
24 | 0 | 0.42 | 0 | 0 | O=C(CCl)Nc1cccc2ncccc12 [PCM-0102097] | 27.9% | 51.3% | 49%
25 | 0.12 | 0.33 | 0 | 0 | Cc1ccc([N+](=O)[O-])cc1NC(=O)CCl [PCM-0102098] | 1.2% | 2% | 1.1%
26 | 0.17 | 0 | 0 | 0 | Cc1c(C#N)c(NC(=O)CCl)n(-c2ccc(F)cc2)c1C [PCM-0102099] | 11.6% | 53.9% | 33.6%
27 | 0 | 0.28 | 0 | 0 | O=C(CCl)Nc1ccc(-c2nnc3n2CCCCC3)cc1 [PCM-0102101] | 17.5% | 61.9% | 36.7%
28 | 0.08 | 0.47 | 0 | 0 | O=C(CCl)Nc1ccc2c(c1)OC1(CCCCC1)O2 [PCM-0102104] | 1.4% | 62.1% | 5.9%
29 | 0 | 0 | 0 | 0.2 | C=CC(=O)Nc1ccc(F)cc1 [PCM-0102111] |  |  | 
30 | 1 | 0.12 | 0 |  | O=C(CCl)Nc1nc2ccc(Br)cc2s1 [PCM-0102126] | 92.5% | 92.7% | 83.6%
31 | 0.18 | 0 | 0 | 0 | O=C(CCl)N1c2ccccc2NC(=O)C12CCCC2 [PCM-0102159] |  |  | 
32 |  | 0 | 0 | 0 | O=C(CCl)N(C1CC1)C1CCCc2ccccc21 (stereo not drawn) [PCM-0102774] | 4% | 5.8% | 5.8%
33 | 0 | 0 | 0 | 0 | Cc1ccccc1CN1CCCN(C(=O)CCl)CC1.Cl [PCM-0102911] |  |  | 
34 | 0 | 0 | 0 | 0 | Cc1ccc(CN2CCCN(C(=O)CCl)CC2)cc1.Cl [PCM-0103056] |  |  | 
